Data taken from patent US9340590B2 (priority 2011, dated 2016).
Positions of bridges follow the written chain, without caps; N, C: chain ends. Non-standard residues stand in square brackets, D forms with d. Residues, ends and D or L forms follow the SMILES beside them. Gly(octyl) = CCCCCCCC[C@H](N)C(=O)O; Tle = CC(C)(C)[C@H](N)C(=O)O; hLeu = CC(C)CC[C@H](N)C(=O)O; Nle = CCCC[C@H](N)C(=O)O; Nva = CCC[C@H](N)C(=O)O; Abu = CC[C@H](N)C(=O)O

Assays:
Test in all cases: cell-based
hNav1.7 = hNav1.7 (Homo sapiens, UniProt Q15858); format: cell-based; settings: IonWorks Quattro, use-dependent block, hNav1.7; read-out: IWQ Use Nav1.7
hNav1.5 = hNav1.5 (Homo sapiens, UniProt Q14524); settings: IonWorks Quattro, use-dependent block, hNav1.5; read-out: IWQ Use Nav1.5
hNav1.3 = hNav1.3 (Homo sapiens, UniProt Q9NY46); settings: IonWorks Quattro, use-dependent block, hNav1.3; read-out: IWQ Use Nav1.3
Sequence of hNav1.3 (Q9NY46 whole entry, looked up): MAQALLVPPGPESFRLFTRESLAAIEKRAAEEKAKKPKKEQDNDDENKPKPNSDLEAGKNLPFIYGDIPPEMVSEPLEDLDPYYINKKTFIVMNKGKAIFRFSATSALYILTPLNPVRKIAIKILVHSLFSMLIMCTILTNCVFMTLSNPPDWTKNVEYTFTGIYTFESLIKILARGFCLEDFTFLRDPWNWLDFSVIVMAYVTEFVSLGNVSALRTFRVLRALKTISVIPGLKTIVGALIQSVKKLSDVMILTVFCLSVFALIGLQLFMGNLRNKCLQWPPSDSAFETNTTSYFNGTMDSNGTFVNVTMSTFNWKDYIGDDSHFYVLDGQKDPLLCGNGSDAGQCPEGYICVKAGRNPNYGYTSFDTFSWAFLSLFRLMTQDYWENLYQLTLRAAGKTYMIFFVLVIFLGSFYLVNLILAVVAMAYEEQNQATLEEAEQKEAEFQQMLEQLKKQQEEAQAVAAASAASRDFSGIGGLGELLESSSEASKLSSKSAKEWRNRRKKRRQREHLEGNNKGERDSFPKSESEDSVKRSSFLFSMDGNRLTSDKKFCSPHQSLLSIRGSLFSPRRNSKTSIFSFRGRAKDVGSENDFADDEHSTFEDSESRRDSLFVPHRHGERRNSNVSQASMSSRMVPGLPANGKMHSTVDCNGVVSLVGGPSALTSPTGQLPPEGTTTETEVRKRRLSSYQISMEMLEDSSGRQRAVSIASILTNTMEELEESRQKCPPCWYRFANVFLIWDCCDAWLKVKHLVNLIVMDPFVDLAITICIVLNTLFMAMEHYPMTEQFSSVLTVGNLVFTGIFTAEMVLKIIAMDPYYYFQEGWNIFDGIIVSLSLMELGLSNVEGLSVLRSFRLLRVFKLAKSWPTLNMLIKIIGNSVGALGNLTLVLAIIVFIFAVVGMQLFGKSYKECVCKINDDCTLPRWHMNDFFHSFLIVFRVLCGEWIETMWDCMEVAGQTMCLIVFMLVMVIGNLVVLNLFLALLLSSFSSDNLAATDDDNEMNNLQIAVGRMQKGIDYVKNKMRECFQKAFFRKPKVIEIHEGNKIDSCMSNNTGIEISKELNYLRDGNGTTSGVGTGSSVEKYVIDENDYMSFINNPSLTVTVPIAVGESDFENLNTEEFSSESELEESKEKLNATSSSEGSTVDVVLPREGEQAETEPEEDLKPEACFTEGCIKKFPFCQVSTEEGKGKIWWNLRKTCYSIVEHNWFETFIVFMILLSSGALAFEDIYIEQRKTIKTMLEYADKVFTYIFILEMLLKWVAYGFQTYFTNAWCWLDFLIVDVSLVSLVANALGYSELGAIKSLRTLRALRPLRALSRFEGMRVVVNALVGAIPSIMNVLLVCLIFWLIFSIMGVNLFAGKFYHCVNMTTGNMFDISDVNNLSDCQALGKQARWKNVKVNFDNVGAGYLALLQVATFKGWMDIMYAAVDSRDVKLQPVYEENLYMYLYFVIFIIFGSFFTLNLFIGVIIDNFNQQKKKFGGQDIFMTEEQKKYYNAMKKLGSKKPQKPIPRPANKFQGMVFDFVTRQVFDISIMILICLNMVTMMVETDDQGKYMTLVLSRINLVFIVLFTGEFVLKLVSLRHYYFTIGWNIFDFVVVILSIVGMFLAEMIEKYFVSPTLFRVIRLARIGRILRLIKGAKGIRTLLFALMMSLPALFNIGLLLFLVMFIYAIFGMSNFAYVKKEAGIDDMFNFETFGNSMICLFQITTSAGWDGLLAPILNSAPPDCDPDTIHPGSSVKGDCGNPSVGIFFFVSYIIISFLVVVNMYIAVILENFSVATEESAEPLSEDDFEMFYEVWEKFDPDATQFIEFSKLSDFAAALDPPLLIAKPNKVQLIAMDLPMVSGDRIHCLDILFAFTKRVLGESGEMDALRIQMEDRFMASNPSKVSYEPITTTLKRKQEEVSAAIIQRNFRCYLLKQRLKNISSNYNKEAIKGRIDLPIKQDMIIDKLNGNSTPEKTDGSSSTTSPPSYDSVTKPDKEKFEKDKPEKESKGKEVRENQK

Sequence of hNav1.5 (Q14524 whole entry, looked up): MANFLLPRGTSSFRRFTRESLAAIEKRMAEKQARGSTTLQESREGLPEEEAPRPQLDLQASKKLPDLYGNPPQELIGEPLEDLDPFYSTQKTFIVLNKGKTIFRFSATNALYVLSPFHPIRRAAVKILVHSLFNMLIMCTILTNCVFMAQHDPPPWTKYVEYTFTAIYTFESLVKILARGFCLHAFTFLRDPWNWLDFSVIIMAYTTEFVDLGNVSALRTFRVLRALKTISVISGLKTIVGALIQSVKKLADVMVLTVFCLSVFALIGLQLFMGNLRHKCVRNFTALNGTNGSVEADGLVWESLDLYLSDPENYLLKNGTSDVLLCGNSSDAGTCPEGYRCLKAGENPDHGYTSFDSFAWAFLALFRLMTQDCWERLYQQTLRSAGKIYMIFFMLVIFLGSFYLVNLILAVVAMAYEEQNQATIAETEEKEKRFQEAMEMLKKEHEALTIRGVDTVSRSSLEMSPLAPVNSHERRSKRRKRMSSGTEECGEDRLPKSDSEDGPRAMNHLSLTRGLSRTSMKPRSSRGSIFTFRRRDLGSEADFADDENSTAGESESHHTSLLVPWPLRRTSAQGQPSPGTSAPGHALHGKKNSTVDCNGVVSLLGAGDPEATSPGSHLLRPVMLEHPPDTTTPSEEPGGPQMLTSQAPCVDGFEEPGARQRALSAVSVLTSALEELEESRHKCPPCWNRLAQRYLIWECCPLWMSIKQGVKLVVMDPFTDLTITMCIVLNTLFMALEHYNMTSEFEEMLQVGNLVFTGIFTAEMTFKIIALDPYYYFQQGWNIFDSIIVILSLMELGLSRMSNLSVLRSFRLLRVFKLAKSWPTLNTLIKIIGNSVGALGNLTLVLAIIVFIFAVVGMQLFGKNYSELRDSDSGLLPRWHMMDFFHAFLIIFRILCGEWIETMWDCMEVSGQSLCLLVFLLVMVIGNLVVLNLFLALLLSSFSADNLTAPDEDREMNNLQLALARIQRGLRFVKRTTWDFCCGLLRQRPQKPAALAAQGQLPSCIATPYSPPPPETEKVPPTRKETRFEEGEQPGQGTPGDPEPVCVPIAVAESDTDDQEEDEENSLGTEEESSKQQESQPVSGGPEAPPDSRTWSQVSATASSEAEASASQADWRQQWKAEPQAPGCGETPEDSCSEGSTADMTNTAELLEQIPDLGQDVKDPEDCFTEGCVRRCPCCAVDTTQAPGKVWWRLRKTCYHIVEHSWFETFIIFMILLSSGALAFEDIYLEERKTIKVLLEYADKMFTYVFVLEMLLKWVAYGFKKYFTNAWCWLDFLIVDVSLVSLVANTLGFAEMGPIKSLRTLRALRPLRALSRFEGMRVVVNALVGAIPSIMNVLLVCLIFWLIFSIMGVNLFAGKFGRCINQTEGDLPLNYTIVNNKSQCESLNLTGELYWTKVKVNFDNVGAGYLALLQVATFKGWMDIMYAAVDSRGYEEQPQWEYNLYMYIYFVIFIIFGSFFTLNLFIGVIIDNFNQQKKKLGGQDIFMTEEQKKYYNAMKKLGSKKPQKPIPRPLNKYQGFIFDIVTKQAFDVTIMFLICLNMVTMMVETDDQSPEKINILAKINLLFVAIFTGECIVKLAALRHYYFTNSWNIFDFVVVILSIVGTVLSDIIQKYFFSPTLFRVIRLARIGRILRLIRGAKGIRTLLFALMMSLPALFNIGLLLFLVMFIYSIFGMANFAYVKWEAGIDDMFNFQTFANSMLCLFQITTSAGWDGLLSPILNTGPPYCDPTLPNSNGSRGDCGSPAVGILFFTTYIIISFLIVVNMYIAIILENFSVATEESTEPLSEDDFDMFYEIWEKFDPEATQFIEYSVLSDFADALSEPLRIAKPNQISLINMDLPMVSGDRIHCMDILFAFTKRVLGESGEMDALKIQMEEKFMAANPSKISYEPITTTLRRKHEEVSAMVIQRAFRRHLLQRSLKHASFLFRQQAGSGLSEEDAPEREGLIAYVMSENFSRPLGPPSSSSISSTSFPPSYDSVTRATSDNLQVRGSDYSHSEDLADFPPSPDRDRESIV

CC[C@@H]1NC(=O)CNC(=O)[C@H](CC(C)C)NC(=O)[C@@H](NC(=O)[C@@H](N)CC(=O)O)CSSC[C@@H]2NC(=O)[C@@H]3CSSC[C@@H](C(=O)N[C@@H](CCCCN)C(=O)N[C@@H](Cc4ccc(O)cc4)C(=O)N[C@H](C(=O)N[C@@H](Cc4ccccc4)C(N)=O)C(C)C)NC(=O)[C@H](Cc4c[nH]c5ccccc45)NC(=O)[C@H](CCCCN)NC(=O)[C@H](Cc4c[nH]cn4)NC(=O)[C@H]([C@@H](C)O)NC(=O)[C@H](CCCNC(=N)N)NC(=O)[C@H](CO)NC(=O)[C@H](CSSC[C@H](NC(=O)[C@H](CCCCN)NC(=O)[C@H](CCCNC(=N)N)NC(=O)[C@H](Cc4ccccc4)NC1=O)C(=O)N[C@@H]([C@@H](C)CC)C(=O)N1CCC[C@H]1C(=O)N[C@@H](CC(=O)O)C(=O)N[C@@H](CC(N)=O)C(=O)N[C@@H](CC(=O)O)C(=O)N[C@@H](CCCCN)C(=O)N3)NC(=O)[C@H](C(C)C)NC(=O)[C@H](CC(C)C)NC(=O)[C@H](CC(N)=O)NC(=O)[C@@H]1CCCN1C(=O)[C@H](CCCNC(=N)N)NC2=O [compound 605] (H-DCLG[Abu]FRKCIPDNDKCCRPNLVCSRTHKWCKYVF-NH2; disulfide 2-17, 9-23, 16-30)
IC50 (hNav1.7): 170 nM
IC50 (hNav1.5): 9500 nM
IC50 (hNav1.3): 360 nM

CCC[C@@H]1NC(=O)CNC(=O)[C@H](CC(C)C)NC(=O)[C@@H](NC(=O)[C@@H](N)CC(=O)O)CSSC[C@@H]2NC(=O)[C@@H]3CSSC[C@@H](C(=O)N[C@@H](CCCCN)C(=O)N[C@@H](Cc4ccc(O)cc4)C(=O)N[C@H](C(=O)N[C@@H](Cc4ccccc4)C(N)=O)C(C)C)NC(=O)[C@H](Cc4c[nH]c5ccccc45)NC(=O)[C@H](CCCCN)NC(=O)[C@H](Cc4c[nH]cn4)NC(=O)[C@H]([C@@H](C)O)NC(=O)[C@H](CCCNC(=N)N)NC(=O)[C@H](CO)NC(=O)[C@H](CSSC[C@H](NC(=O)[C@H](CCCCN)NC(=O)[C@H](CCCNC(=N)N)NC(=O)[C@H](Cc4ccccc4)NC1=O)C(=O)N[C@@H]([C@@H](C)CC)C(=O)N1CCC[C@H]1C(=O)N[C@@H](CC(=O)O)C(=O)N[C@@H](CC(N)=O)C(=O)N[C@@H](CC(=O)O)C(=O)N[C@@H](CCCCN)C(=O)N3)NC(=O)[C@H](C(C)C)NC(=O)[C@H](CC(C)C)NC(=O)[C@H](CC(N)=O)NC(=O)[C@@H]1CCCN1C(=O)[C@H](CCCNC(=N)N)NC2=O [compound 606] (H-DCLG[Nva]FRKCIPDNDKCCRPNLVCSRTHKWCKYVF-NH2; disulfide 2-17, 9-23, 16-30)
IC50 (hNav1.7): 84 nM
IC50 (hNav1.5): 7800 nM
IC50 (hNav1.3): 170 nM

CCCC[C@@H]1NC(=O)CNC(=O)[C@H](CC(C)C)NC(=O)[C@@H](NC(=O)[C@@H](N)CC(=O)O)CSSC[C@@H]2NC(=O)[C@@H]3CSSC[C@@H](C(=O)N[C@@H](CCCCN)C(=O)N[C@@H](Cc4ccc(O)cc4)C(=O)N[C@H](C(=O)N[C@@H](Cc4ccccc4)C(N)=O)C(C)C)NC(=O)[C@H](Cc4c[nH]c5ccccc45)NC(=O)[C@H](CCCCN)NC(=O)[C@H](Cc4c[nH]cn4)NC(=O)[C@H]([C@@H](C)O)NC(=O)[C@H](CCCNC(=N)N)NC(=O)[C@H](CO)NC(=O)[C@H](CSSC[C@H](NC(=O)[C@H](CCCCN)NC(=O)[C@H](CCCNC(=N)N)NC(=O)[C@H](Cc4ccccc4)NC1=O)C(=O)N[C@@H]([C@@H](C)CC)C(=O)N1CCC[C@H]1C(=O)N[C@@H](CC(=O)O)C(=O)N[C@@H](CC(N)=O)C(=O)N[C@@H](CC(=O)O)C(=O)N[C@@H](CCCCN)C(=O)N3)NC(=O)[C@H](C(C)C)NC(=O)[C@H](CC(C)C)NC(=O)[C@H](CC(N)=O)NC(=O)[C@@H]1CCCN1C(=O)[C@H](CCCNC(=N)N)NC2=O [compound 607] (H-DCLG[Nle]FRKCIPDNDKCCRPNLVCSRTHKWCKYVF-NH2; disulfide 2-17, 9-23, 16-30)
IC50 (hNav1.7): 16 nM
IC50 (hNav1.5): 11300 nM
IC50 (hNav1.3): 67 nM

CCCCCCCC[C@@H]1NC(=O)CNC(=O)[C@H](CC(C)C)NC(=O)[C@@H](NC(=O)[C@@H](N)CC(=O)O)CSSC[C@@H]2NC(=O)[C@@H]3CSSC[C@@H](C(=O)N[C@@H](CCCCN)C(=O)N[C@@H](Cc4ccc(O)cc4)C(=O)N[C@H](C(=O)N[C@@H](Cc4ccccc4)C(N)=O)C(C)C)NC(=O)[C@H](Cc4c[nH]c5ccccc45)NC(=O)[C@H](CCCCN)NC(=O)[C@H](Cc4c[nH]cn4)NC(=O)[C@H]([C@@H](C)O)NC(=O)[C@H](CCCNC(=N)N)NC(=O)[C@H](CO)NC(=O)[C@H](CSSC[C@H](NC(=O)[C@H](CCCCN)NC(=O)[C@H](CCCNC(=N)N)NC(=O)[C@H](Cc4ccccc4)NC1=O)C(=O)N[C@@H]([C@@H](C)CC)C(=O)N1CCC[C@H]1C(=O)N[C@@H](CC(=O)O)C(=O)N[C@@H](CC(N)=O)C(=O)N[C@@H](CC(=O)O)C(=O)N[C@@H](CCCCN)C(=O)N3)NC(=O)[C@H](C(C)C)NC(=O)[C@H](CC(C)C)NC(=O)[C@H](CC(N)=O)NC(=O)[C@@H]1CCCN1C(=O)[C@H](CCCNC(=N)N)NC2=O [compound 608] (H-DCLG[Gly(octyl)]FRKCIPDNDKCCRPNLVCSRTHKWCKYVF-NH2; disulfide 2-17, 9-23, 16-30)
IC50 (hNav1.7): 11300 nM
IC50 (hNav1.5): 20200 nM
IC50 (hNav1.3): 21800 nM

CC[C@H](C)[C@@H]1NC(=O)[C@@H]2CSSC[C@@H]3NC(=O)[C@H](C(C)C)NC(=O)[C@H](CC(C)C)NC(=O)[C@H](CC(N)=O)NC(=O)[C@@H]4CCCN4C(=O)[C@H](CCCNC(=N)N)NC(=O)[C@H](CSSC[C@H](NC(=O)[C@@H](N)CC(=O)O)C(=O)N[C@@H](CC(C)C)C(=O)NCC(=O)N[C@@H](C(C)(C)C)C(=O)N[C@@H](Cc4ccccc4)C(=O)N[C@@H](CCCNC(=N)N)C(=O)N[C@@H](CCCCN)C(=O)N2)NC(=O)[C@H](CSSC[C@@H](C(=O)N[C@@H](CCCCN)C(=O)N[C@@H](Cc2ccc(O)cc2)C(=O)N[C@H](C(=O)N[C@@H](Cc2ccccc2)C(N)=O)C(C)C)NC(=O)[C@H](Cc2c[nH]c4ccccc24)NC(=O)[C@H](CCCCN)NC(=O)[C@H](Cc2c[nH]cn2)NC(=O)[C@H]([C@@H](C)O)NC(=O)[C@H](CCCNC(=N)N)NC(=O)[C@H](CO)NC3=O)NC(=O)[C@H](CCCCN)NC(=O)[C@H](CC(=O)O)NC(=O)[C@H](CC(N)=O)NC(=O)[C@H](CC(=O)O)NC(=O)[C@@H]2CCCN2C1=O [compound 609] (H-DCLG[Tle]FRKCIPDNDKCCRPNLVCSRTHKWCKYVF-NH2; disulfide 2-17, 9-23, 16-30)
IC50 (hNav1.7): 81 nM
IC50 (hNav1.5): 6700 nM
IC50 (hNav1.3): 260 nM

CC[C@H](C)[C@@H]1NC(=O)[C@@H]2CSSC[C@@H]3NC(=O)[C@H](C(C)C)NC(=O)[C@H](CC(C)C)NC(=O)[C@H](CC(N)=O)NC(=O)[C@@H]4CCCN4C(=O)[C@H](CCCNC(=N)N)NC(=O)[C@H](CSSC[C@H](NC(=O)[C@@H](N)CC(=O)O)C(=O)N[C@@H](CC(C)C)C(=O)NCC(=O)N[C@@H](CCC(C)C)C(=O)N[C@@H](Cc4ccccc4)C(=O)N[C@@H](CCCNC(=N)N)C(=O)N[C@@H](CCCCN)C(=O)N2)NC(=O)[C@H](CSSC[C@@H](C(=O)N[C@@H](CCCCN)C(=O)N[C@@H](Cc2ccc(O)cc2)C(=O)N[C@H](C(=O)N[C@@H](Cc2ccccc2)C(N)=O)C(C)C)NC(=O)[C@H](Cc2c[nH]c4ccccc24)NC(=O)[C@H](CCCCN)NC(=O)[C@H](Cc2c[nH]cn2)NC(=O)[C@H]([C@@H](C)O)NC(=O)[C@H](CCCNC(=N)N)NC(=O)[C@H](CO)NC3=O)NC(=O)[C@H](CCCCN)NC(=O)[C@H](CC(=O)O)NC(=O)[C@H](CC(N)=O)NC(=O)[C@H](CC(=O)O)NC(=O)[C@@H]2CCCN2C1=O [compound 610] (H-DCLG[hLeu]FRKCIPDNDKCCRPNLVCSRTHKWCKYVF-NH2; disulfide 2-17, 9-23, 16-30)
IC50 (hNav1.7): 11 nM
IC50 (hNav1.5): 8200 nM
IC50 (hNav1.3): 41 nM
